# Results: PubChem BioAssay (NCI)
#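 These data come from cells grown in 96-well plates and exposed to compound for 48 hours at five concentrations. GI50 = concentration required for 50% inhibition of growth. At the TGI there is no net growth.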
# Experiments:
# Assay in all cases: NCI tumour cell line growth inhibition, 48 h
# [1] = system: K-562 leukemia
# [2] = system: 786-0 renal
# [3] = system: SF-268 CNS
# [4] = system: ACHN renal
# [5] = system: A498 renal
# [6] = system: SN12C renal
# [7] = system: NCI-H226 lung
# [8] = system: A549 NSCLC
# [9] = system: LOX IMVI melanoma
# [10] = system: NCI-H23 lung
# [11] = system: HOP-62 NSCLC
# [12] = system: SNB-19 CNS
# [13] = system: HS 578T breast
# [14] = system: DU-145 prostate
# [15] = system: KM12 colon
# [16] = system: BT-549 breast
# [17] = system: RPMI-8226 leukemia
# [18] = system: SK-MEL-2 melanoma
# [19] = system: EKVX NSCLC
# [20] = system: SK-MEL-5 melanoma
# [21] = system: UO-31 renal
# [22] = system: SW-620 colon
# [23] = system: SK-MEL-28 melanoma
# [24] = system: CAKI-1 renal
# [25] = system: SNB-75 CNS
# [26] = system: SF-295 CNS
# [27] = system: MDA-MB-231 breast
# [28] = system: HCT-116 colon
# [29] = system: OVCAR-3 ovarian
# [30] = system: M14 melanoma
# [31] = system: TK-10 renal
# [32] = system: MOLT-4 leukemia
# [33] = system: U251 CNS
# [34] = system: UACC-257 melanoma
# [35] = system: COLO 205 colon
# [36] = system: MALME-3M melanoma
# [37] = system: NCI-H522 lung
# [38] = system: SK-OV-3 ovarian
# [39] = system: OVCAR-4 ovarian
# [40] = system: OVCAR-8 ovarian
# [41] = system: NCI-H460 lung
# [42] = system: NCI/ADR-RES ovarian
# [43] = system: RXF 393 renal
# [44] = system: OVCAR-5 ovarian
# [45] = system: SF-539 CNS
# [46] = system: HCT-15 colon
# [47] = system: HL-60(TB) leukemia
# [48] = system: PC-3 prostate
# [49] = system: UACC-62 melanoma
# [50] = system: HOP-92 NSCLC
# [51] = system: CCRF-CEM leukemia
# [52] = system: MDA-MB-435
# [53] = system: HT29 colon
# [54] = system: HCC-2998 colon
# [55] = system: IGROV1 ovarian
smiles,measurement,setting,value
C=C1CC2(OC1=O)C(=O)N(C)c1ccc(I)cc12 (centres undefined),GI50,[1],1310 nM
same,TGI,[1],> 23700 nM
same,GI50,[2],1650 nM
same,TGI,[2],3180 nM
same,GI50,[3],2010 nM
same,TGI,[3],5010 nM
same,GI50,[4],624 nM
same,TGI,[4],1830 nM
same,GI50,[5],2500 nM
same,TGI,[5],10200 nM
same,GI50,[6],1710 nM
same,TGI,[6],4020 nM
same,GI50,[7],2310 nM
same,TGI,[7],9900 nM
same,GI50,[8],6230 nM
same,TGI,[8],22500 nM
same,GI50,[9],1140 nM
same,TGI,[9],2520 nM
same,GI50,[10],1740 nM
same,TGI,[10],4580 nM
same,GI50,[11],12900 nM
same,TGI,[11],27700 nM
same,GI50,[12],6980 nM
same,TGI,[12],20200 nM
same,GI50,[13],3260 nM
same,TGI,[13],> 22700 nM
same,GI50,[14],941 nM
same,TGI,[14],2270 nM
same,GI50,[15],3370 nM
same,TGI,[15],8550 nM
same,GI50,[16],1560 nM
same,TGI,[16],4190 nM
same,GI50,[17],558 nM
same,TGI,[17],2530 nM
same,GI50,[18],2160 nM
same,TGI,[18],6280 nM
same,GI50,[19],1660 nM
same,TGI,[19],8150 nM
same,GI50,[20],2260 nM
same,TGI,[20],6370 nM
same,GI50,[21],622 nM
same,TGI,[21],2030 nM
same,GI50,[22],566 nM
same,TGI,[22],2040 nM
same,GI50,[23],1730 nM
same,TGI,[23],3600 nM
same,GI50,[24],836 nM
same,TGI,[24],2790 nM
same,GI50,[25],3690 nM
same,TGI,[25],12700 nM
same,GI50,[26],2300 nM
same,TGI,[26],8160 nM
same,GI50,[27],1810 nM
same,TGI,[27],5310 nM
same,GI50,[28],348 nM
same,TGI,[28],1420 nM
same,GI50,[29],422 nM
same,TGI,[29],1430 nM
same,GI50,[30],1490 nM
same,TGI,[30],3030 nM
same,GI50,[31],1440 nM
same,TGI,[31],3170 nM
same,GI50,[32],548 nM
same,TGI,[32],3450 nM
same,GI50,[33],1810 nM
same,TGI,[33],5210 nM
same,GI50,[34],909 nM
same,TGI,[34],2490 nM
same,GI50,[35],841 nM
same,TGI,[35],2170 nM
same,GI50,[36],272 nM
same,TGI,[36],1930 nM
same,GI50,[37],444 nM
same,TGI,[37],1800 nM
same,GI50,[38],9950 nM
same,TGI,[38],22500 nM
same,GI50,[39],1270 nM
same,TGI,[39],5430 nM
same,GI50,[40],1760 nM
same,TGI,[40],4900 nM
same,GI50,[41],2750 nM
same,TGI,[41],11100 nM
same,GI50,[42],1850 nM
same,TGI,[42],4680 nM
same,GI50,[43],481 nM
same,TGI,[43],1180 nM
same,GI50,[44],2130 nM
same,TGI,[44],4840 nM
same,GI50,[45],1380 nM
same,TGI,[45],2800 nM
same,GI50,[46],583 nM
same,TGI,[46],1970 nM
same,GI50,[47],337 nM
same,TGI,[47],1540 nM
same,GI50,[48],2290 nM
same,TGI,[48],7860 nM
same,GI50,[49],1250 nM
same,TGI,[49],2690 nM
same,GI50,[50],659 nM
same,TGI,[50],2690 nM
same,GI50,[51],1060 nM
same,TGI,[51],> 100000 nM
same,GI50,[52],1570 nM
same,TGI,[52],5490 nM
same,GI50,[53],1030 nM
same,GI50,[54],2690 nM
same,TGI,[54],7040 nM
same,GI50,[55],1230 nM
same,TGI,[55],4560 nM
